# Measurements: US10562898B2, “Substituted benzenesulfonamides as inhibitors of alpha-4 beta-7 integrin activity” (EA PHARMA CO., LTD., priority 2016, dated 2020)
# Target: T1, T cell α4β7 integrin (Homo sapiens, UniProt P13612+P26010)
# T1 construct: Blood samples were obtained from healthy volunteers' blood donation; endogenous in cells; host or cells: CD4-positive T cells in whole blood of healthy human volunteers
# T1 sequence (P13612 34-1032): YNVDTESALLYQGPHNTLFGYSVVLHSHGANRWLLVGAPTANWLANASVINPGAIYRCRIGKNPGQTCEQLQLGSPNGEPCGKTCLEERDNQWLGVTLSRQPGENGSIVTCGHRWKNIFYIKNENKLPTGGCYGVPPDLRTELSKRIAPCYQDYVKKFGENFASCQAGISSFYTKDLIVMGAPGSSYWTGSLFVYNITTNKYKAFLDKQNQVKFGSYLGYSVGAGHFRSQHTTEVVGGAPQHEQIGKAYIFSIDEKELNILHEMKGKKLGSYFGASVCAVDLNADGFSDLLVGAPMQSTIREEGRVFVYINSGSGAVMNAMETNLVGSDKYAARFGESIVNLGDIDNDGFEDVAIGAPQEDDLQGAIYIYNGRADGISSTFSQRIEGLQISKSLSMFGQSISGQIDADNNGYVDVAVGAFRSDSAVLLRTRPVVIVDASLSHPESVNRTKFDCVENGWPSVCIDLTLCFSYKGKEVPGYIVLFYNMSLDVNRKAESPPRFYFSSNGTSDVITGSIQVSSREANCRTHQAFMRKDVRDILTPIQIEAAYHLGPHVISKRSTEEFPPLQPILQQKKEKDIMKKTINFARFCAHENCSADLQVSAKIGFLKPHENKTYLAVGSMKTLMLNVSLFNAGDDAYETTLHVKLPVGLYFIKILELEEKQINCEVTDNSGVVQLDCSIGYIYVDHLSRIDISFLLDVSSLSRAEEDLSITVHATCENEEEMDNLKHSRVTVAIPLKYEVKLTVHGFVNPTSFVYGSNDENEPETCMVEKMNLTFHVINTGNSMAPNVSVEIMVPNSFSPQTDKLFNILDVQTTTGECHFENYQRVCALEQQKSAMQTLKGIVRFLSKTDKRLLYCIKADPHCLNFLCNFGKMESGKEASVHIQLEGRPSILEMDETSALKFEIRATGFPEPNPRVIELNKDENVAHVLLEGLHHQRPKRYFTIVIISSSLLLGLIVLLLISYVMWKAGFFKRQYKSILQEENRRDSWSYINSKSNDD
# T1 sequence (P26010 20-798): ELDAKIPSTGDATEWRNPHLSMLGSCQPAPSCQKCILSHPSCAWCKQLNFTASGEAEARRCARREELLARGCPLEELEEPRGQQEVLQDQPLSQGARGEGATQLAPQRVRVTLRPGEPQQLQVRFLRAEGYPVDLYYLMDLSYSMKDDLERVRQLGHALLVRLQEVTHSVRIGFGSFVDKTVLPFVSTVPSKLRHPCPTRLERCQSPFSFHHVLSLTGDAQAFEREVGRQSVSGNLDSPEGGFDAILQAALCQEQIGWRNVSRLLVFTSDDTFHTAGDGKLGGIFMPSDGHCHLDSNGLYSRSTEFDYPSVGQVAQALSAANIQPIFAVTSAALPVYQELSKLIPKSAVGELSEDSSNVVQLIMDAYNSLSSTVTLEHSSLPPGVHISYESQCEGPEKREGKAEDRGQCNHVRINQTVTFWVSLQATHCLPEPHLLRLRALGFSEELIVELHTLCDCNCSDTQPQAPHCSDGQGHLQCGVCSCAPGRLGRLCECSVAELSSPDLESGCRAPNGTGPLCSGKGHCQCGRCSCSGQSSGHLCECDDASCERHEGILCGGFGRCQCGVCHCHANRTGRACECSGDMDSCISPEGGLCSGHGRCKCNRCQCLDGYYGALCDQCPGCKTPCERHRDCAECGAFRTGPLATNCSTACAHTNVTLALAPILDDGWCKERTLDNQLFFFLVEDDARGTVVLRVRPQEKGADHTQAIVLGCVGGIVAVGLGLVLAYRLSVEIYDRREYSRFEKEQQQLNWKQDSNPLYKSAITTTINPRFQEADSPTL
# Experiment: Mouse MAdCAM-1/α4β7 integrin binding inhibitory activity evaluation test in whole human blood
# Assay type: cell-based
# Details: recombinant mouse MAdCAM-1/Fc, CD4 positive cells, flow cytometry
# Description: (4) Mouse MAdCAM-1/α4β7 Integrin Binding Inhibitory Activity Evaluation Test in Whole Human Blood
# Each test substance was measured in terms of the binding inhibitory activity of T cell α4β7 integrin and MAdCAM-1 in human whole blood. Blood samples were obtained from healthy volunteers' blood donation.
# A 4 mM MnCl2 solution and each of dilutions of various test substances were added to human whole blood, followed by incubation for 10 minutes. Recombinant mouse MAdCAM-1/Fc (R&D Systems, Inc.) at 10 μg/mL was added to the resultant, and each test sample taken in a total amount of 50 μL was incubated for 30 minutes. Then, 950 μL of Lyse/Fix (BD Biosciences) was added to allow hemolysis and fixation to proceed at 37° C. for 10 minutes. After centrifugation for 5 minutes, the supernatant was removed and 600 μL of a RPMI-1640 medium supplemented with 10% inactivated fetal bovine serum (hereinafter referred to as the medium) was added, followed by centrifugation for 5 minutes, removal of the supernatant, and then washing. After the test sample was washed again with the medium, Rat Anti-Mouse MAdCAM-1 antibody (Southern Biotech) at 0.625 μg/mL was added, followed by incubation for 30 minutes or more. After the test sample was washed with the medium, 50 μg/mL Goat Anti-Rat IgG (H+L) Antibody, FITC (Life Technologies) was added, followed by incubation for 30 minutes or more. After the test sample was washed with the medium, 10 μg/mL PE Rat Anti-Mouse CD4 (BD Pharmigen) was added, followed by incubation for 30 minutes or more. After the test sample was washed with the medium, a ratio of MAdCAM-1 positive cells to CD4 positive cells was measured by using flow cytometry.
# From independent test results using different blood samples of two to three persons, a MAdCAM-1 binding inhibiting rate of each test substance at each of various concentrations was obtained under the setting in which, among wells containing no test substances, a well containing no ligand was scored at 100% inhibition and a well containing ligand was scored at 0% inhibition, and then a concentration IC50 which brought about 50% binding inhibition was calculated.
row,IC50,SMILES
1,1.9 nM,Cc1c(C)n(C)c(=O)n(-c2ccc(C[C@H](NC(=O)c3cc(F)c(NS(=O)(=O)c4ccc(NC(=O)C(C)(C)C)cn4)cc3F)C(=O)O)cn2)c1=O [Compound A32]
2,1.8 nM,Cn1ccc(=O)n(-c2ccc(C[C@H](NC(=O)c3cc(F)c(NS(=O)(=O)c4ccc(NC(=O)C(C)(C)C)cc4)cc3F)C(=O)O)cn2)c1=O [Compound A53]
3,3.3 nM,Cc1cn(C)c(=O)n(-c2ccc(C[C@H](NC(=O)c3cc(F)c(NS(=O)(=O)c4ccc(NC(=O)C(C)(C)C)cc4)cc3F)C(=O)O)cc2)c1=O [Compound A37]
4,1.3 nM,Cc1c(C)n(C)c(=O)n(-c2ccc(C[C@H](NC(=O)c3cc(F)c(NS(=O)(=O)c4ccc(NC(=O)C(C)(C)C)cc4)cc3F)C(=O)O)cc2)c1=O [Compound A8]
5,1.6 nM,Cc1cc(=O)n(-c2ccc(C[C@H](NC(=O)c3cc(F)c(NS(=O)(=O)c4ccc(NC(=O)C(C)(C)C)cc4)cc3F)C(=O)O)cc2)c(=O)n1C [Compound A46]
6,1.3 nM,Cc1cn(C)c(=O)n(-c2ccc(C[C@H](NC(=O)c3cc(F)c(NS(=O)(=O)c4ccc(NC(=O)C(C)(C)C)cc4)cc3F)C(=O)O)cn2)c1=O [Compound A54]
7,1.3 nM,Cc1cc(=O)n(-c2ccc(C[C@H](NC(=O)c3cc(F)c(NS(=O)(=O)c4ccc(NC(=O)C(C)(C)C)cc4)cc3F)C(=O)O)cn2)c(=O)n1C [Compound A45]
8,3.9 nM,"Cn1c(=O)n(-c2ccc(C[C@H](NC(=O)c3cc(F)c(NS(=O)(=O)c4ccc(NC(=O)C(C)(C)C)cc4)cc3F)C(=O)O)cc2)c(=O)c2ccncc21 [Compound A1, (2S)-2-[[4-[[4-(2,2-dimethylpropanoylamino)phenyl]sulfonylamino]-2,5-difluoro-benzoyl]amino]-3-[4-(1-methyl-2,4-dioxo-pyrido[3,4-d]pyrimidin-3-yl)phenyl]propanoic acid]"
9,2.3 nM,Cn1c2c(c(=O)n(-c3ccc(C[C@H](NC(=O)c4cc(F)c(NS(=O)(=O)c5ccc(NC(=O)C(C)(C)C)cc5)cc4F)C(=O)O)cn3)c1=O)CCOC2 [Compound A40]
10,2.4 nM,Cn1c(=O)n(-c2ccc(C[C@H](NC(=O)c3cc(F)c(NS(=O)(=O)c4ccc(NC(=O)C(C)(C)C)cc4)cc3F)C(=O)O)cn2)c(=O)c2ccncc21 [Compound A26]
11,1 nM,Cn1c2c(c(=O)n(-c3ccc(C[C@H](NC(=O)c4cc(F)c(NS(=O)(=O)c5ccc(NC(=O)C(C)(C)C)cc5)cc4F)C(=O)O)cn3)c1=O)COCC2 [Compound A44]
12,2.2 nM,Cn1ccc(=O)n(-c2ccc(C[C@H](NC(=O)c3cc(F)c(NS(=O)(=O)c4ccc(NC(=O)C(C)(C)C)cc4)cc3F)C(=O)O)cc2)c1=O [Compound A42]
13,1.2 nM,Cc1c(C)n(C)c(=O)n(-c2ccc(C[C@H](NC(=O)c3cc(F)c(NS(=O)(=O)c4ccc(NC(=O)C(C)(C)C)cc4)cc3F)C(=O)O)cn2)c1=O [Compound A28]
